In patent US8440671B2, “Compositions comprising a phoshodiesterase-5 inhibitor and their use in methods of treatment” (priority 2007, dated 2013):

Columns and labels:
[1] = system: subject with Parkinson's Disease; assay: Example 4: case report, subject with Parkinson's Disease given PI-5, SSRI and DI
Excerpt: A fourth subject was diagnosed with Parkinson's Disease and administered a combination of PI-5, SSRI and DI.

[2] = system: subject with Alzheimer's Disease and dementia; conditions: for clinical status changes: cholinesterase inhibitor alone
Excerpt: A fifth subject was diagnosed with Alzheimer's Disease and dementia and administered a combination of PI-5, SSRI and CI.

[3] = system: subject with atypical Parkinson's Disease, severe seborrheic dermatitis and scarring facial acne rosacea; assay type: in vivo
Excerpt: A third subject was diagnosed with atypical Parkinson's Disease with an initial presentation fifteen years earlier with cogwheel type diffuse tremor of low amplitude, diffuse muscular rigidity, mild bradykinesia, gait abnormalities.
Patient is a non-smoker and social drinker with minimal alcohol consumption and no history of drug abuse. Chronic problems of borderline hypertension (treated with diet and HYTRIN® (terazoin)), benign prostatic hypertrophy (treated with HYTRIN® (terazoin) and voding training), GERD treated intermittently as needed with PRILOSEC® (omeprazole) plus PEPCID® (famotidine) for short periods, DJD of cervical and lumbar spine treated intermittently with physical therapy, TYLENOL® (acetaminophen), occasional VICODIN® (acetaminophen/hydrocodone) as needed.

[4] = system: subject with rapidly progressive multi-system neurodegenerative disease, facial acne, vitiligo, gingival infections; assay type: in vivo; conditions: for clinical response to neurological disease, skin and mucous membrane disorders: each drug given individually; for substitution within the oral combination: Viagra 50 mg TID for oral Cialis, Paxil 20 mg TID for Luvox
Excerpt: A second subject was diagnosed with nonspecific but rapidly progressive multi-system neurodegenerative disease. […] Initial presentation was with abrupt onset dementia with rapid progression over 3-4 months. Severe, generalized myoclonus of high amplitude with ataxia, dyspahagia, central and peripheral respiratory distress (requiring CPAP), dizziness, and hypokinetic rigidity followed some one month later and have continued to progress as well as dementia.
Mild intermittent gingival infections requiring minimal surgical intervention with retraction from tooth line for over ten years.
Patient was a non-smoker with no alcohol or other drug consumption. Patient suffered from coexisting prior problem of chronic atrial fibrillation, currently rate controlled with exercise alone and anticoagulation intermittently with Coumadin.
The twenty four hour doses, put into 7.5 cc of water solution, was also applied topically to scar noted previously. […] Patient also takes Folic acid—1 mg per day, and Vitamin B6.

## CC(C)C[C@H]1C(=O)N2CCC[C@H]2[C@]2(O)O[C@](NC(=O)[C@@H]3C=C4c5cccc6[nH]c(Br)c(c56)C[C@H]4N(C)C3)(C(C)C)C(=O)N12 [Bromocriptine, bromocriptine]
[1]; short periods later in disease
  change on short periods of treatment: without significant change

## COc1cc2c(cc1OC)C(=O)C(CC1CCN(Cc3ccccc3)CC1)C2 (centres unmarked) [ARICEPT® (donepezil), donepezil]
[2]
  clinical status changes: without significant clinical status changes
[2]; two week period, without noticeable changes
  substitution for COGNEX within the combination: successfully substituted

## NC12CC3CC(CC(C3)C1)C2 [Amantadine, amantadine]
[3]; chronic low-dose treatment
  change in seborrheic dermatitis or acne rosacea: No change
  improvement of all symptoms: little or no improvement

## Nc1c2c(nc3ccccc13)CCCC2 [COGNEX® (tacrine), tacrine]
[1]; added to Luvox, Cialis, Sinemet regimen
  effect on all symptoms when added to the regimen: mild improvements
[1]; human, in vivo
  tolerability when added to the regimen: discontinued secondary to gastrointestinal upset
[4]
  clinical response to neurological disease, skin and mucous membrane disorders: without any clinical response
[2]
  clinical status changes: without significant clinical status changes

## CN1CCc2cccc3c2[C@H]1Cc1ccc(O)c(O)c1-3 [Apomorphine, apomorphine]
[3]; IV, part of work-up
  paradoxical response to IV Apomorphine: decreased blood pressure and worsening of rigidity and tremor

## Fc1ccc([C@@H]2CCNC[C@H]2COc2ccc3c(c2)OCO3)cc1 [Paxil, paroxetine]
[4]
  substitution within the oral combination: equivalently substituted

## CCCc1nn(C)c2c(=O)[nH]c(-c3cc(S(=O)(=O)N4CCN(C)CC4)ccc3OCC)nc12 [VIAGRA® (sildenafil), sildenafil]
[4]
  substitution within the oral combination: equivalently substituted
  clinical response to neurological disease, skin and mucous membrane disorders: without any clinical response

## COCCCC/C(=N\OCCN)c1ccc(C(F)(F)F)cc1 [LUVOX® (fluvoxamine), fluvoxamine]
[4]
  clinical response to neurological disease, skin and mucous membrane disorders: without any clinical response
